Columns and labels:
[1] = clinical; details: both, human, plasma, oral, 120 mg
Procedure: Each participant completed 3 study periods: Screening, Treatment period (12 or 31 days), and Safety follow-up.
Participants were healthy males and females between the ages of 18 and 55 years old.
In Part B, a randomized controlled trial was conducted.

[2] = test system: adult patients with essential tremor; experiment: Example 16: Patient Global Impression of Change (PGI-C); assay type: in vivo, human; details: for participants with PGI-C score minimally improved: Part A; for participants with PGI-C much improved / participants with PGI-C score reflecting no change in symptoms: Part B OLT
Description: Patients were scheduled for Safety Follow-up on Day 70 (±1 day) in the clinic for the final clinical trial assessment.

[3] = test system: gamma band EEG power; experiment: qEEG: eyes open / eyes closed gamma band power; assay type: in vivo, human; details: Part B, beginning at 60 mg through 120 mg
Description: It appears a maximal effect in gamma reduction was not achieved.
The eyes open (EO) and eyes closed (EC) gamma absolute power for each individual was also estimated at specific time points across the study days.
The population PK model was used to generate Cave for NREM sigma absolute power and concentrations for EO and EC gamma absolute power. For NREM sigma absolute power, the Cave was computed for the final day of each dose level over the EEG collection interval. For EO and EC gamma absolute power, concentrations at 4 hours post-dose and 23.75 hours post-dose were generated on the final day of each dose level. The final population PKPD models for NREM sigma absolute power and EO and EC gamma absolute power were then used to generate corresponding EEG responses.

[4] = target: T1, hCav3.2 (Homo sapiens, UniProt O95180); experiment: PatchXpress patch clamp, voltage dependent block (half-inactivated state); assay type: cell-based
T1 construct: expressed in transfected cells; host or cells: HEK-293
Procedure: The voltage dependence of calcium channel isoforms was determined by comparing the activity of resting (Tonic Block) and half-inactivated (Voltage Dependent Block) voltages across various concentrations of Formula (II). First, HEK-293 cells containing hCav3.1, hCav3.2, or hCav3.3 calcium channel isoforms were prepared by seeding at 2×10^6 cells per flask in culture for 2 days; the cells were then harvested at about 6×10^6 cells. Harvested cells were washed once in DPBS for approximately 30 minutes, and 1 mL of 1× (0.05%) Trypsin-EDTA was added, swirled, and allowed to sit on the cells for approximately 4 minutes. […]
Pharmacology was measured during Epoch 1. Percent inhibition was calculated as: 100*((([Step 2+Step 5]/2)−Step3)/(Step 2+Step 5/2)), wherein Step 2 is the peak current measured at baseline, Step 5 is the current measured during the wash period, and Step 3 is the peak current measured during application of the compound. […]
The effect of the compound on peak current amplitude was monitored using the voltage protocol described above and washed out after reaching steady state as determined by PatchXpress stability scripts. […] Washout current for the calculation of inhibition was determined by resetting the holding potential to the previously determined half-inactivation potential (V0.5) and measuring peak current from this holding potential. […]

[5] = Part B RWD (RWAS), Day 56, n 6, change from randomization baseline

T1 sequence (O95180 whole entry): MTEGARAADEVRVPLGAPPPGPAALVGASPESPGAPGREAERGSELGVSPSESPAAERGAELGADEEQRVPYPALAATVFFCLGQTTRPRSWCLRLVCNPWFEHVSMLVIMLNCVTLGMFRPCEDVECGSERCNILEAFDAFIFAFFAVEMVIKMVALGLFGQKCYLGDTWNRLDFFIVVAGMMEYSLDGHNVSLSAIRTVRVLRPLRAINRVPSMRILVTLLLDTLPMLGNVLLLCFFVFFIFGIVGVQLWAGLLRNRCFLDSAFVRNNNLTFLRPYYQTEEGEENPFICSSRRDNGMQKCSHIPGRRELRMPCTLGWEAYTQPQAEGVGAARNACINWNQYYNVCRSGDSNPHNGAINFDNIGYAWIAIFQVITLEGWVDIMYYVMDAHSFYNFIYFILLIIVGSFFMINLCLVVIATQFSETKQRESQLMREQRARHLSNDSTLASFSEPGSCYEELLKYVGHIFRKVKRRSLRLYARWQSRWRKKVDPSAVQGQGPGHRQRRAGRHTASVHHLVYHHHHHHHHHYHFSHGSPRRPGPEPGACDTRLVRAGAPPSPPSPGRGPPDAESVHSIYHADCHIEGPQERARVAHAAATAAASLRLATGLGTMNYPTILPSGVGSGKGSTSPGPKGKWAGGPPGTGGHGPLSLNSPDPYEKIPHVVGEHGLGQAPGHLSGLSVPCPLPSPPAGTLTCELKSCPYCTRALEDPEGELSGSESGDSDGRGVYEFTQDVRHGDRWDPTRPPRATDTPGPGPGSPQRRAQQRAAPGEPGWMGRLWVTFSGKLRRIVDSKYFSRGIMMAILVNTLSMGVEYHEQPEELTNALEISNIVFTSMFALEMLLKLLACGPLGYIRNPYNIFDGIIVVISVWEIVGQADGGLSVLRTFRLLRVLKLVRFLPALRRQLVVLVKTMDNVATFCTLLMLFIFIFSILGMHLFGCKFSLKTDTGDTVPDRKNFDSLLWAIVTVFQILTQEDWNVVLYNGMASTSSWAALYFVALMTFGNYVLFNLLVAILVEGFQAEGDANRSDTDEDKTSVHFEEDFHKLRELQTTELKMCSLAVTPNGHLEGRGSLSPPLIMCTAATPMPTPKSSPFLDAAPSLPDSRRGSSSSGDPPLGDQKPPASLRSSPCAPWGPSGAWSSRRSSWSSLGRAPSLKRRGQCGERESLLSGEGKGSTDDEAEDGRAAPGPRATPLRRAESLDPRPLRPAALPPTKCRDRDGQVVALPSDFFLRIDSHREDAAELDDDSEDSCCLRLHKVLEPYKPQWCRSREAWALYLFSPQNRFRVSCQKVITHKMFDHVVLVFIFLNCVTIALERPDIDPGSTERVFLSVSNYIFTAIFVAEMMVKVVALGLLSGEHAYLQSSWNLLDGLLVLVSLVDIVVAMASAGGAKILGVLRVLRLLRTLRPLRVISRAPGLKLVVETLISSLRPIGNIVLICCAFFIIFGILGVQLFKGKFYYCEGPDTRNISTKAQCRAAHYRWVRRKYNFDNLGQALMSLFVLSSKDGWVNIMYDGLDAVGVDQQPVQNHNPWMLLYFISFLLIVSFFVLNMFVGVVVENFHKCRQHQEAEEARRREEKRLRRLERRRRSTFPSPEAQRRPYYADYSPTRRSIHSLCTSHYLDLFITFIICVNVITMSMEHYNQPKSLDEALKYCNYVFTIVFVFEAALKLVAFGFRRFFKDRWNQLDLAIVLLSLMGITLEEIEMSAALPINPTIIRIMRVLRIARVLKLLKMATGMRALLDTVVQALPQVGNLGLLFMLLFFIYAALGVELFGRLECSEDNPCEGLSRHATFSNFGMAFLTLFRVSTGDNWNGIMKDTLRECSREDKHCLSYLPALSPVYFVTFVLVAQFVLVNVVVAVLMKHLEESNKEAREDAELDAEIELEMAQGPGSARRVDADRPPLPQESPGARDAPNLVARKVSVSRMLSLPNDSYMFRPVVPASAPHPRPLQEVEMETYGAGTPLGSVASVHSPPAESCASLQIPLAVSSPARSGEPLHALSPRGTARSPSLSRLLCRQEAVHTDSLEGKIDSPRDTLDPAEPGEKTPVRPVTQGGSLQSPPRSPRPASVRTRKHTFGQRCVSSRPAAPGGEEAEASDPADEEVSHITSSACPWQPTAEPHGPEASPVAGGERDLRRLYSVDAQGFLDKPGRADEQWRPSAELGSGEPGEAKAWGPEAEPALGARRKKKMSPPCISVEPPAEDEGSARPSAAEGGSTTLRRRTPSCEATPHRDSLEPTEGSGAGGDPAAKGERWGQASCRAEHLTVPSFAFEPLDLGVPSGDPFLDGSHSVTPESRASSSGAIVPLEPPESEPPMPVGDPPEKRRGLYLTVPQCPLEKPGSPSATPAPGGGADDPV

## CC(C)(C)NC(=O)CN1CCC(CNC(=O)c2cc(F)cc(Cl)c2)CC1 [compound of formula (I), N-((1-(2-(tert-butylamino)-2-oxoethyl)piperidin-4-yl)methyl)-3-chloro-5-fluorobenzamide]
[1]
  AUC: ≥ 4650 ng·h/mL
  Cmax: ≥ 390 ng/mL
[2]; Part A (FAS), Day 7, n 6
  PGI-C Score 1 very much improved: 0 n (%)
  PGI-C Score 2 Much improved: 1 n (%)
  PGI-C Score 3 minimally improved: 2 (33.3) n (%)
  PGI-C Score 4 no change: 2 (33.3) n (%)
  PGI-C Score 5 minimally worse: 0 n (%)
  PGI-C Score 6 much worse: 1 (16.7) n (%)
  PGI-C Score 7 very much worse: 0 n (%)
[2]; Part A (FAS), Day 14, n 6
  PGI-C Score 1 very much improved: 0 n (%)
  PGI-C Score 2 Much improved: 1 n (%)
  PGI-C Score 3 minimally improved: 5 (83.3) n (%)
  PGI-C Score 4 no change: 0 n (%)
  PGI-C Score 5 minimally worse: 0 n (%)
  PGI-C Score 6 much worse: 0 n (%)
  PGI-C Score 7 very much worse: 0 n (%)
[2]; Day 7
  participants with PGI-C score minimally improved: 33.3%
  participants with PGI-C much improved: 7.7%
  participants with PGI-C score reflecting no change in symptoms: 53.8%
[2]; Day 14
  participants with PGI-C score minimally improved: 83.3%
[2]; Part B OLT (FAS), Day 7, n 13
  PGI-C Score 1 very much improved: 0 n (%)
  PGI-C Score 2 Much improved: 1 n (%)
  PGI-C Score 3 minimally improved: 5 (38.5) n (%)
  PGI-C Score 4 no change: 7 (53.8) n (%)
  PGI-C Score 5 minimally worse: 0 n (%)
  PGI-C Score 6 much worse: 0 n (%)
  PGI-C Score 7 very much worse: 0 n (%)
[2]; Part B OLT (FAS), Day 21, n 12
  PGI-C Score 1 very much improved: 0 n (%)
  PGI-C Score 2 Much improved: 1 n (%)
  PGI-C Score 3 minimally improved: 5 (41.7) n (%)
  PGI-C Score 4 no change: 6 (50.0) n (%)
  PGI-C Score 5 minimally worse: 0 n (%)
  PGI-C Score 6 much worse: 0 n (%)
  PGI-C Score 7 very much worse: 0 n (%)
[2]; Part B OLT (FAS), Day 42, n 11
  PGI-C Score 1 very much improved: 0 n (%)
  PGI-C Score 2 Much improved: 3 n (%)
  PGI-C Score 3 minimally improved: 4 (36.4) n (%)
  PGI-C Score 4 no change: 4 (36.4) n (%)
  PGI-C Score 5 minimally worse: 0 n (%)
  PGI-C Score 6 much worse: 0 n (%)
  PGI-C Score 7 very much worse: 0 n (%)
[2]; Day 42
  participants with PGI-C much improved: 27.3%
  participants with PGI-C score reflecting no change in symptoms: 36.4%
[2]; [5]
  PGI-C Score 1 very much improved: 0 n (%)
  PGI-C Score 2 Much improved: 0 n (%)
  PGI-C Score 3 minimally improved: 2 (33.3) n (%)
  PGI-C Score 4 no change: 3 (50.0) n (%)
  PGI-C Score 5 minimally worse: 0 n (%)
  PGI-C Score 6 much worse: 0 n (%)
  PGI-C Score 7 very much worse: 1 (16.7) n (%)

## CC(C)(C)NC(=O)CN1CCC(CNC(=O)c2cc(F)cc(Cl)c2)CC1.Cl [compound of formula (II), N-((1-(2-(tert-butylamino)-2-oxoethyl)piperidin-4-yl)methyl)-3-chloro-5-fluorobenzamide hydrochloride]
[3]
  gamma band EEG power: dose-related reduction
[4]
  tonic block/voltage dependent block (TB/VDB) ratio: 2.0
